Each structure is given as a SMILES string.

This is an account of results in ChEMBL document CHEMBL1151820, “Antagonists of the P2X(7) receptor. From lead identification to drug development” (J Med Chem, 2009).

The experiment has as its target T1, P2X purinoceptor 7 (Homo sapiens, UniProt Q99572).
T1 sequence (Q99572 whole entry): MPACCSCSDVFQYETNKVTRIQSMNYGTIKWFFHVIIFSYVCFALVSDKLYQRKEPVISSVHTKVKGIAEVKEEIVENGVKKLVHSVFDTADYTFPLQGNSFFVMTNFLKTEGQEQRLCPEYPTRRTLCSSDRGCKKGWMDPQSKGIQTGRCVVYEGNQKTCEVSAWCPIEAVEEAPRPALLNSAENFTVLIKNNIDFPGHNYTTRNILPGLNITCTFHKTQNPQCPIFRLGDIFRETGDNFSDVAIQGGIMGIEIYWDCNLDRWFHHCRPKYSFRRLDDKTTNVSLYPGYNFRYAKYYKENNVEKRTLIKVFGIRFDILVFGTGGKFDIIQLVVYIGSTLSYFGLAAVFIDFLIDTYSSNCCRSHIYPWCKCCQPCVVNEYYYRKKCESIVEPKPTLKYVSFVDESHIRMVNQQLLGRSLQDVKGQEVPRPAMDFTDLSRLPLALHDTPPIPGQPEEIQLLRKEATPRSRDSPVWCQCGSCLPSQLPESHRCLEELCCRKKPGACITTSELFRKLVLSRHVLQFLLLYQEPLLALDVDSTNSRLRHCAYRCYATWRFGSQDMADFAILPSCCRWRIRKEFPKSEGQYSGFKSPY
Briefly: Antagonist activity at P2X7 receptor in human THP1 cells assessed as inhibition of BzATP-induced ethidium uptake. The class given is functional, cell-based, THP-1. The settings on record: for Kb: read-out: pA2 (converted); for pIC50: thp-1.

Consider `O=C(NCC1(O)CCCCC1)c1cc(-n2ncc(=O)[nH]c2=O)ccc1Cl`, for which the half-inhibitory concentration (IC50) is 398 nM.

As for `CNC[C@@H](O)Cc1ccc(Cl)c(C(=O)NCC23CC4CC(CC(C4)C2)C3)c1`, the IC50 was 10 nM.

For the compound `O=C(CC12CC3CC(CC(C3)C1)C2)Nc1c(Cl)ccc2nc(CN3CCN(CCO)CC3)ccc12`, the IC50 was 20 nM.

In the case of `COC(=O)N(C)C(CCc1ccncc1)COc1ccc(-c2cccc([N+](=O)[O-])c2)cc1` (stereo not given), the half-maximal inhibitory concentration (IC50) was > 10000 nM.

Turning to `Cc1ccccc1NC(=O)CC12CC3CC(CC(C3)C1)C2`, the Kb is 158 nM.

Turning to `O=C(CC1CCCCCC1)Nc1cccc2c(=O)n([C@H]3CCNC3)ccc12`, the IC50 was 3.16 nM.

For `O=C(CC12CC3CC(CC(C3)C1)C2)Nc1cccc2nc(NCCCO)ccc12`, the IC50 is 7.94 nM.

For `O=C(NCC12CC3CC(CC(C3)C1)C2)c1ccnc(N2CCNCC2)c1Cl`, the pIC50 is listed as > 5.

With `O=C(NCC12CC3CC(CC(C3)C1)C2)c1ccc(Cl)cc1`, the IC50 is > 10000 nM.

Turning to `CC(=O)NC(CCc1ccncc1)COc1ccc(-c2cccc([N+](=O)[O-])c2)cc1` (stereo not given), the half-inhibitory concentration (IC50) was > 10000 nM.

As for `NC1CCN(c2nccc(C(=O)NCC34CC5CC(CC(C5)C3)C4)c2Cl)CC1`, the pIC50 is recorded as > 5.

With `CC(C)C(CO)n1ccc2c(NC(=O)CC34CC5CC(CC(C5)C3)C4)cccc2c1=O` (stereo not given), the IC50 was 0.0501 nM.

In the case of `O=C(NCC12CC3CC(CC(C3)C1)C2)c1cc(-n2ncc(=O)[nH]c2=O)ccc1Cl`, the IC50 is 50.1 nM.

As for `C[C@@H](C(N)=O)n1ccc2c(NC(=O)CC34CC5CC(CC(C5)C3)C4)c(Cl)ccc2c1=O`, the concentration for half-maximal inhibition (IC50) is 0.0794 nM.

As to `Cc1ccc2c(NC(=O)C[C@H](C)c3ccccc3)c(Cl)ccc2n1`, the 50% inhibitory concentration (IC50) is 316 nM.

`CC(C)NC(=O)c1cnc(N2CCC(N3C(=O)OCc4ccccc43)CC2)c(Cl)c1`: the pIC50 result is on record as “>= 4.5”.

As for `CC(CO)NC(=O)c1cnc(N2CCC(N3C(=O)OCc4ccccc43)CC2)nc1C(F)(F)F` (stereo not given), the pIC50 result was “>= 4.5”.

As to `O=C(Cc1ccc(F)c(C(F)(F)F)c1)Nc1cccc2c(=O)n([C@@H]3CNC[C@H]3O)ccc12`, the 50% inhibitory concentration (IC50) is 2.51 nM.

For `O=C(NCC12CC3CC(CC(C3)C1)C2)c1ccnc(NCC2CCNCC2)c1Cl`, the negative logarithm of the IC50 (pIC50) was > 5.

As to `Cc1ccc2nc(CCNCCCO)ccc2c1NC(=O)CC12CC3CC(CC(C3)C1)C2`, the IC50 is 15.8 nM.

Consider `O=C(NCC12CC3CC(CC(C3)C1)C2)c1cc(CCCNCCc2cnc[nH]2)ccc1Cl`, for which the negative logarithm of the IC50 (pIC50) is on record as > 5.

As for `O=C(NCC12CC3CC(CC(C3)C1)C2)c1cc(OC2CCNCC2)ncc1Cl`, the pIC50 is reported as > 5.

With `O=C(NC12CC3CC(CC(C3)C1)C2)c1ccccc1Cl`, the half-maximal inhibitory concentration (IC50) is > 10000 nM.

Take `O=C(NCC12CC3CC(CC(C3)C1)C2)c1cc(N2CCNCC2)ncc1Cl`: the pIC50 is recorded as > 5.

In the case of `Cc1cccc(C)c1NC(=O)CN1CC2CCC(C1)N2c1ncnc2sccc12`, the pIC50 entry is listed as “>= 5”.

With `CCS(=O)(=O)N1CCc2c(ccc(C)c2NC(=O)Cc2ccc(C(F)(F)F)c(F)c2)C1`, the IC50 is 25.1 nM.

As to `O=C(CNc1ccc(F)c(F)c1)Nc1cc(OC2CCNCC2)ccc1Cl`, the negative logarithm of the IC50 (pIC50) is recorded as > 4.5.

On to `O=C(Cc1ccc(C(F)(F)F)c(F)c1)Nc1cccc2c1CCN(C(=O)[C@H]1CCCN1)C2`, for which the half-inhibitory concentration (IC50) was 79.4 nM.

Consider `O=C(NCC12CC3CC(CC(C3)C1)C2)c1cc(OCCCNCCCO)ccc1Cl`, for which the pIC50 is on record as > 5.

In the case of `CCCCC(CC)CNC(=O)c1cc(-n2ncc(=O)[nH]c2=O)ccc1Cl` (stereo not given), the IC50 is 794 nM.

For the compound `O=C(CC1CCCCC1)Nc1c(Cl)ccc2nc(NCCCO)ccc12`, the concentration for half-maximal inhibition (IC50) is 25.1 nM.

With `CN(C(=O)c1ccc(N2CCC(N3C(=O)OCc4ccccc43)CC2)c([N+](=O)[O-])c1)C1CCCCC1`, the pIC50 result is reported as “>= 4.5”.

For `O=C(Cc1cccc(C(F)(F)F)c1F)Nc1c(Cl)ccc2c(=O)n(C3CC3)ccc12`, the IC50 was 0.316 nM.

As to `COC(=O)NC(CCc1ccncc1)COc1ccc(-c2cccc([N+](=O)[O-])c2)cc1` (stereo not given), the half-maximal inhibitory concentration (IC50) was > 10000 nM.

For `COc1ccc(Cl)c(C(=O)NCC23CC4CC(CC(C4)C2)C3)c1`, the Kb is 1.58 nM.
